Results on three molecules are retold here after US11918822B2, “Compositions and methods for enhancing the biological response to chemical agents and physical stimuli” (The Research Foundation for the State University of New York, priority 2010, dated 2024).

The test system of the test is C3H10T1/2 embryonic mesenchymal stem cells. The experiment in a line: Adipogenesis of mesenchymal stem cells in adipogenic medium (adiponectin, PPARγ immunoblots, lipid granules). Format: cell-based. On the procedure: C3H10T1/2 embryonic mesenchymal stem cells were maintained in growth medium (α-MEM, 10% FBS, 100 µg/ml penicillin/streptomycin). Cells were plated at a density of 6,000-10,000 cells per cm^2 in collagen-I coated silicone membrane plates and cultured for two days before loading protocols began. Adipogenic medium included 0.1 μM dexamethasone, 5 μg/ml insulin, and in some cases, 50 μM indomethcin. If noted, MSC wee transfected with siRNA (100 nm) in serum-free OptiMEM overnight before replacing the medium. Multi-potential medium contained 50 μg/ml ascorbic acid, 1 μM β-glycerophosphate, 10 nM dexamethasone, nM all trans-retinoic acid, 5 μg/mi insulin, 0.5 mM 3-isobutyl-1-methylxanthine (IBMX).
Low Intensity Vibration (LIV): To deliver LIV to cultured MSC, an amplified loudspeaker generated controlled 90 Hz 0.6 g (where 1.0 g is Earth's gravitational field, or […]) standing wave accelerations/decelerations through the wells of culture dishes. Dishes were removed from the incubator during the loading periods (up to three times per day) and set on the lab-bench (control) or, for LIV, on the loudspeaker.
Western blotting: Details were as in Sen, et al. (Endocrinology 42:6065-6075 (2008)). Antibodies included those directed against active β-catenin (Upstate, Temecula, CA), total […] (BD, Bedford, MA), total-GSK3β Chemicon, Billerica, MA), aP2, PPARγ, adiponectin, COX2, NFATc1 and tubulin (Santa Cruz, CA). Densitometry was determined using NIH ImageJ, 1.37v.
Histochemical Staining: After fixation in 2% formaldehyde, cells were rinsed before staining for cytoplasmic triglyceride droplets with oil-red-O.
On the technique in general: A western blot detects proteins with antibodies after separation by electrophoresis.

As to `O=C1NC(=O)C(c2ccccc2[N+](=O)[O-])=C1Nc1ccc(O)c(Cl)c1` [SB415286], under “MSC in adipogenic medium”, the effect on adipogenesis entry is given as “prevention of adipogenesis”. The “effect on adipogenesis when β-catenin is knocked down” value (MSC with siRNA targeting β-catenin (+siCat)) is listed as “blocked by targeting β-catenin”.
Take `COc1ccc2c(c1)c(CC(=O)O)c(C)n2C(=O)c1ccc(Cl)cc1` [indonethacin]: the “time to adipogenesis (rate of adipogenesis) after addition to adipogenic media” value (added to adipogenic media, without it 7-8 days) lay within 4 to 5 days.

B1: DKK1: protein from R & D Systems added at doses known to inhibit Wnt binding Lrp receptors (protein, UniProt O94907 32-266, looked up)
Dickkopf-related protein 1: TLNSVLNSNAIKNLPPPLGGAAGHPGSAVSAAPGILYPGGNKYQTIDNYQPYPCAEDEECGTDEYCASPTRGGDAGVQICLACRKRRKRCMRHAMCCPGNYCKNGICVSSDQNHFRGEIEETITESFGNDHSTLDGYSRRTTLSSKMYHTKGQEGSVCLRSSDCASGLCCARHFWSKICKPVLKEGQVCTKHRRKGSHGLEIFQRCYCGEGLSCRIQKDHHQASNSSRLHTCQRH
As to B1, the “effect on LIV's ability to inhibit adipogenesis” value (added to LIV treated cultures at doses known to inhibit Wnt binding Lrp receptors) was “failed to block LIV's ability to inhibit adipogenesis”.
